Tested on: anti-T7 antibodies
Assay: T7 ELISA of serum from cured mice
Format: in vivo, SKH1/hr mice
Description: Blood (˜50-100 μl) 1 s taken by tail bleeding the mice and is collected into 0.8 ml MiniCollect® Z Serum Separator tubes that are coated with spray-dried clot activator (Greiner bio-one Cat. Num. 450472) and are spun at 3000 rpm in a microfuge at room temperature for 10 min. The serum is collected and stored at 4° C. for analysis of anti-T7 antibodies by ELISA.
Preparation of T7 ELISA plates: T7 cells are grown to 90% confluence. The medium is aspirated and the cells are washed once with ice-cold PBS. T7 cells are harvested by scraping in PBS supplemented with protease inhibitor cocktail (PIC) and disrupted by sonication at 4° C. for 1-2 min. The T7 lys ate solution is supplemented with bicarbonate buffer (pH 9.6) containing PIC to a final volume of 40 ml and 70 μl/well is added to each well in a 96 well plate (Nunc, Invitro Technologies Cat. Num. 442404). The plates are dried overnight at 37° C.
The following day, the plates are blocked with 10% (w/v) skim milk in PBS for 1 h at room temperature. Meanwhile mouse serum is prepared by diluting 1:7 to 1:413343 in 3-fold dilutions in PBS/0.01% Tween20 (v/v)/1% (w/v) skim milk for the IgG2a plate and 1:10 10 […] in 3-fold dilutions for the IgG1 plate. […] Spectrophotometric readings are taken on an ELISA plate reader at 405 nm and graphs are generated using Graphpad Prism Version 5.01 software. […]

SMILES: C/C=C(/C)C(=O)O[C@H]1C(C)=C[C@]23C(=O)[C@@H](C=C(CO)[C@@H](O)[C@]12O)[C@H]1[C@@H](C[C@H]3C)C1(C)C [ingenol mebutate]
- IgG1 and IgG2a anti-T7 antibodies vs naïve mice (cured female mice bled 107 days post treatment, 0.25% topical): significantly more
- anti-tumour antibodies (separate group, day 156 post treatment): barely detectable

Reference: patent US20140242012A1, “METHODS FOR TREATING UV-DAMAGED SKIN AND SCC TUMORS AND FOR REMOVING TATTOOS WITH TOPICAL INGENOL MEBUTATE” (LEO Laboratories Limited, priority 2011, published 2014)
